Assay results reported in patent US4150153A, “1-(Naphthylethyl)imidazole derivatives” (Syntex (U.S.A.) Inc., priority 1977, dated 1979).

Key:
[1] = lethalities in mice after a single intraperitoneal dose; conditions: mouse, in vivo, ip, single dose intraperitoneally, lethalities determined after five days, doses 1-1,000 mg/kg
Description: Groups of 3 male ICR derived mice weighing 18-24 grams were given a single dose of compound intraperitoneally. The following doses were employed: 1, 3, 10, 30, 100, 300 or 1,000 mg/kg. After five days lethalities were determined.

[2] = test system: male Hilltop ICR-derived mice; assay: Maximal Electroshock Test in Mice; format: in vivo; conditions: intraperitoneally 15 minutes prior to transcorneal maximal electroshock (50 milliamps, 0.2 seconds), antagonizing tonic extension, in parentheses 95% confidence limits; for ED50: Mus musculus, ip, 0.25 h
Description: Maximal Electroshock Test in Mice
This test was performed in the standard manner, essentially as described by Swinyard et al., J. Pharm.
Groups of 10 male Hilltop ICR-derived mice weighing 20-30 grams were dosed intraperitoneally with a solution or suspension of drug in saline 15 minutes prior to a transcorneal maximal electroshock (50 milliamps, 0.2 seconds).

Row | Structure (SMILES) | LD50 at 120 h [1] [mg/kg] | ED50 [2] [mg/kg] | ED50 (95% confidence limits) [2]
1 | O=C(Cn1ccnc1)c1cccc2ccccc12 [1-(1-naphthoylmethyl)imidazole] | 100 to 300 | ~60 | –
2 | O=C(Cn1ccnc1)c1ccc2ccccc2c1 [1-(2-naphthoylmethyl)imidazole] | 100 to 300 | 23 | –
3 | CC1CSC(Cn2ccnc2)(c2ccc3ccccc3c2)S1.Cl (stereo not drawn) [1-[2,2-(1,2-propylenedithio)-2-(2-naphthyl)ethyl]imidazole hydrochloride] | – | – | 65 (55-73) mg/kg
4 | c1ccc2cc(C3(Cn4ccnc4)OCCCO3)ccc2c1 [1-[2,2-(1,3-propylenedioxy)-2-(2-naphthyl)ethyl]imidazole] | – | 17 | –
5 | CC1CCOC(Cn2ccnc2)(c2ccc3ccccc3c2)O1 (stereo not drawn) [1-[2,2-(1-methyl-1,3-propylenedioxy)-2-(2-naphthyl)ethyl]imidazole] | – | 19 | –
6 | CC1(C)COC(Cn2ccnc2)(c2ccc3ccccc3c2)OC1 [1-[2,2-(2,2-dimethyl-1,3-propylenedioxy)-2-(2-naphthyl)ethyl]imidazole] | – | 26 | –
7 | CCSC(Cn1ccnc1)(SCC)c1ccc2ccccc2c1 [1-[2,2-bis(ethylthio)-2-(2-naphthyl)ethyl]imidazole] | – | 35 | –
8 | CSC(Cn1ccnc1)(SC)c1ccc2ccccc2c1 [1-[2,2-bis(methylthio)-2-(2-naphthyl)ethyl]imidazole] | – | 32 | –
9 | c1ccc2c(C3(Cn4ccnc4)OCCO3)cccc2c1 [1-[2,2-ethylenedioxy-2-(1-naphthyl)ethyl]imidazole] | – | 19 | –
10 | c1ccc2cc(C3(Cn4ccnc4)OCCO3)ccc2c1 [1-[2,2-ethylenedioxy-2-(2-naphthyl)ethyl]imidazole] | 100 to 300 | 12 | –
11 | c1ccc2cc(C3(Cn4ccnc4)SCCS3)ccc2c1 [1-[2,2-ethylenedithio-2-(2-naphthyl)ethyl]imidazole] | – | 26 | –
12 | OC(Cn1ccnc1)c1cccc2ccccc12 (stereo not drawn) [1-[2-hydroxy-2-(1-naphthyl)ethyl]imidazole] | 300 to 1000 | 37 | –
13 | OC(Cn1ccnc1)c1ccc2ccccc2c1 (stereo not drawn) [1-[2-hydroxy-2-(2-naphthyl)ethyl]imidazole] | 300 to 1000 | 74 | –
